Assay [1] has as its system TRK fusion positive cancers. To be noted: cited from earlier work.
In assay [2] the target is T1, TRKC-G696A (Homo sapiens, UniProt Q16288, G696A).
T1 construct: purchased Reaction Biology (HotSpot Kinase assay panel)
In words: Reaction Biology HotSpot Kinase assay, direct enzyme phosphorylation. The assay is classed as biochemical. As to conditions: xDFG Mutant TRKC-G696A. As to the method: (§1) Direct enzyme phosphorylation assay. The Reaction Biology HotSpot Kinase assay was used to screen the present invention against a panel of normal TRKA, TRKB, and TRKC and mutated TRK kinases. For assays of all kinases, the TRK enzyme was prepared in base reaction buffer (20 mM Hepes (pH 7.5), 10 mM MgCl2, 1 mM EGTA, 0.02% Brij35, 0.02 mg/ml BSA, 0.1 mM Na3VO4, 2 mM DTT, 1% DMSO). The reaction was initiated by the addition of 33P-ATP (10 μCi/μL) into the mixture. The reaction mixture was incubated for 120 minutes at room temperature. Radioactivity was detected by filter-binding method, and kinase activity expressed as the percent remaining kinase activity in test samples compared to vehicle reactions. IC50 values and curve fitting were obtained using Prism (GraphPad Software).
(§2) The activity of the besylate salt of the present invention was determined using a direct enzymatic Reaction Biology HotSpot Kinase assay. All IC50 values are presented in nanomolar concentration. In the direct enzymatic measurement assay, the IC50 of the besylate salt of the current invention against the various TRK kinases is shown in Table 1.

Assay [3] has as its target T2, TRKA-L657M (Homo sapiens, UniProt P04629, L657M).
T2 construct: purchased Reaction Biology (HotSpot Kinase assay panel)
The description is as above. Type of assay: biochemical. To be noted: Other Mutant TRKA-L657M. Here is the method: as §1, §2

For assay [4], the target named is T3, TRKA-TPM3 (Homo sapiens, UniProt P04629).
T3 construct: fused on or other part: N-terminal part of tropomyosin 3 (coiled-coil dimerisation part); P06753 (Tropomyosin alpha-3 chain)
T3 sequence (P04629 510-796 limits assumed): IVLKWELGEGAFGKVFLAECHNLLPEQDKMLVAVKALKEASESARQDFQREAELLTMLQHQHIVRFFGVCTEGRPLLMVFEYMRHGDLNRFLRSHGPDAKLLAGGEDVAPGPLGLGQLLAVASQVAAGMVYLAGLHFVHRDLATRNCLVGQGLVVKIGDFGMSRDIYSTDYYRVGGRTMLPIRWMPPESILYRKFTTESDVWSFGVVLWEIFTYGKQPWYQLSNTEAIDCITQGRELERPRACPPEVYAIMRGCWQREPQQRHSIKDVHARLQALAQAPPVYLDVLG
Described as above. The assay is classed as biochemical. To be noted: Fusion TRKA-TPM3. As to the method: as §1, §2

Assay [5] deals with T4, TRKA-A608D (Homo sapiens, UniProt P04629, A608D).
T4 construct: purchased Reaction Biology (HotSpot Kinase assay panel)
T4 sequence (P04629 33-796 A608D): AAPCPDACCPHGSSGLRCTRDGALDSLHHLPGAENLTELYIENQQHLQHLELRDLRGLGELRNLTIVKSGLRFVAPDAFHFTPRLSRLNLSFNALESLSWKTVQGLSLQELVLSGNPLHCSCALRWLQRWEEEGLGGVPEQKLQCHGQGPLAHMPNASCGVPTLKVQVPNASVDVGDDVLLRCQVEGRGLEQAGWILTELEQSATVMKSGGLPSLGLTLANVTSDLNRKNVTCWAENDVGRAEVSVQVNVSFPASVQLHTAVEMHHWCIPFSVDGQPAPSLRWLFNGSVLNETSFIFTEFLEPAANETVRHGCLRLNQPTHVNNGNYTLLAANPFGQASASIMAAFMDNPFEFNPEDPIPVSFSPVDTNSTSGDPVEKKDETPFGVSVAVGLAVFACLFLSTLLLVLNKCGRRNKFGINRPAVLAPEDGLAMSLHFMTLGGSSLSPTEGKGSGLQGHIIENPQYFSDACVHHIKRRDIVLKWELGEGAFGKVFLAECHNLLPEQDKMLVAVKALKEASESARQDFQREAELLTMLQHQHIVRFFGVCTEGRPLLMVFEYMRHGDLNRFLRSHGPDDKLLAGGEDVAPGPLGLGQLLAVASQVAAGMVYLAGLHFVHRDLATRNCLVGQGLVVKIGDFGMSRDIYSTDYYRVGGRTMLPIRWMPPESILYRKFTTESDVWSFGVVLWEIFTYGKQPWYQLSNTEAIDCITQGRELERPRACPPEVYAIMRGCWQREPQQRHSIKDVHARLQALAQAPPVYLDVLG
The description is as above. The assay is classed as biochemical. As to conditions: Other Mutant TRKA-A608D. As to the method: as §1, §2

Assay [6] addresses T5, TRKC-L686M (Homo sapiens, UniProt Q16288, L686M).
T5 construct: purchased Reaction Biology (HotSpot Kinase assay panel)
Described as above. Type of assay: biochemical. To be noted: Other Mutant TRKC-L686M. As to the method:
as §1, §2

In assay [7] the target is T6, TRKA-G667C (Homo sapiens, UniProt P04629, G667C).
T6 construct: purchased Reaction Biology (HotSpot Kinase assay panel)
T6 sequence (P04629 33-796 G667C): as the sequence (P04629 33-796 A608D) above, with D576A, G635C counted along it
The assay is described as above. As to conditions: xDFG Mutant TRKA-G667C. The assay is classed as biochemical. Here is the method:
as §1, §2

Assay [8] has as its target T7, TRKA-G667S (Homo sapiens, UniProt P04629, G667S).
T7 construct: purchased Reaction Biology (HotSpot Kinase assay panel)
Described as above. Type of assay: biochemical. To be noted: xDFG Mutant TRKA-G667S. Here is the method: as §1, §2

For assay [9], the target named is T8, TRKA-TFG (Homo sapiens, UniProt P04629).
T8 construct: partner gene encoding one or more dimerization domains with the tyrosine kinase domains of one of the TRK genes; TFG (fusion partner); purchased Reaction Biology (HotSpot Kinase assay panel); the other entry of the earlier key: TFG (Q92734, Protein TFG)
T8 sequence (P04629 with tags, fused parts or gaps): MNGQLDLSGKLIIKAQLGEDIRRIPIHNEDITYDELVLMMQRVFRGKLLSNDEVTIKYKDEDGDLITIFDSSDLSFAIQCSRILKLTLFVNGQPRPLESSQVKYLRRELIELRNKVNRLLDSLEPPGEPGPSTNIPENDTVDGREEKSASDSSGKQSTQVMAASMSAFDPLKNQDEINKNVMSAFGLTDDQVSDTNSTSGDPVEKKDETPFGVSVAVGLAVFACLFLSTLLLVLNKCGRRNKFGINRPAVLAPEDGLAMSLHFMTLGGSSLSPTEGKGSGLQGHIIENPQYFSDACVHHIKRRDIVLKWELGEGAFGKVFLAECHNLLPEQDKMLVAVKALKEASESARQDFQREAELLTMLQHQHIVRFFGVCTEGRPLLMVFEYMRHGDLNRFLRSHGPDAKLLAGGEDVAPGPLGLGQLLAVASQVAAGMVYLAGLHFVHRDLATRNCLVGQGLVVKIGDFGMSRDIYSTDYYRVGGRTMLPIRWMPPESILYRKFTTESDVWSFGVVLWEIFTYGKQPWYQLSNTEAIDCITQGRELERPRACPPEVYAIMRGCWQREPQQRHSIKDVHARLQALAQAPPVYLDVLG
The assay is described as above. The assay is classed as biochemical. To be noted: Fusion TRKA-TFG. As to the method: as §1, §2

The target of assay [10] is T9, TRKA-TPR (Homo sapiens, UniProt P04629).
T9 construct: fused on or other part: N-terminal coiled-coil part of TPR (translocated promoter region protein); P12270 (Nucleoprotein TPR)
T9 sequence (P04629 510-796 limits assumed): as the sequence (P04629 510-796 limits assumed) above
Described as above. The assay is classed as biochemical. To be noted: Fusion TRKA-TPR. Here is the method:
as §1, §2

pIC50: −log10 of the molar value.

T5 sequence (Q16288 32-839 L686M): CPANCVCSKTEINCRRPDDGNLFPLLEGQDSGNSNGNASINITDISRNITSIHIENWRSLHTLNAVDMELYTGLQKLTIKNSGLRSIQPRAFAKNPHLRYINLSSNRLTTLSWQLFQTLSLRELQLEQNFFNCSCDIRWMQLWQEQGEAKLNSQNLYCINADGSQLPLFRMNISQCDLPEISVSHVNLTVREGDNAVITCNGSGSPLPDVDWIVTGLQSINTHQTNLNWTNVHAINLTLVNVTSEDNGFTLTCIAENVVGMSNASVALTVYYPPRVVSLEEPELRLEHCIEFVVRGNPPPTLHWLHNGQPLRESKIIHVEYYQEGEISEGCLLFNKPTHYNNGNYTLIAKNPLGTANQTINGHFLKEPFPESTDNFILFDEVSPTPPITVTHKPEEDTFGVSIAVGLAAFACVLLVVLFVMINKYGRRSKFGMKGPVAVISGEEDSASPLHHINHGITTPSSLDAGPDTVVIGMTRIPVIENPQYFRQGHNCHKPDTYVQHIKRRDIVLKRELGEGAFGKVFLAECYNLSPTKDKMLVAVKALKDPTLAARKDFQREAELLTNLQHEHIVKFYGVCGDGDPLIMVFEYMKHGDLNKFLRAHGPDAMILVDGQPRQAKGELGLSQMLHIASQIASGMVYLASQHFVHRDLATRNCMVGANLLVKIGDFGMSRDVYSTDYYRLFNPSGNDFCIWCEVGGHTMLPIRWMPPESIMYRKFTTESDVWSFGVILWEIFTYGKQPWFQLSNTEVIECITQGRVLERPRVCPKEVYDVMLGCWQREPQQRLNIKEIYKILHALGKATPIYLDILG
T1 sequence (Q16288 32-839 G696A): as the sequence (Q16288 32-839 L686M) above, with M655L, G665A counted along it
T7 sequence (P04629 33-796 G667S): as the sequence (P04629 33-796 A608D) above, with D576A, G635S counted along it
T2 sequence (P04629 33-796 L657M): as the sequence (P04629 33-796 A608D) above, with D576A, L625M counted along it

Consider `O=C(Nc1cnn2ccc(N3CCC[C@@H]3c3cc(F)ccc3F)nc12)N1CC[C@H](O)C1` [Larotrectinib], for which, in assay [1] (assessed patients), the “clinical response in assessed patients” value is on record as 75%. For the same molecule, the “patients progressed within 1 year” value in assay [1] (within 1 year) was 45%.

Turning to `CC1(COc2ccc3c(c2)ncn3-c2ccc3cccc(N4CCC(N)CC4)c3n2)COC1` [crenolanib besylate, Crenolanib Besylate], the pIC50 in assay [2] was 8.24; in assay [3] it was 7.10; in [4], 8.36; in assay [5], 7.41; in assay [6], 6.74; in assay [7], 8.30. Moreover, the pIC50 is 8.34 in assay [8], 8.40 in assay [9] and 8.40 in assay [10].
